Experimental data published in the CheMixHub ionic liquid set.
± gives the uncertainty stated by the source.

Assay: xn = mol fraction of the nth substance listed

CCC(=O)[O-].CCOCCn1cc[n+](C)c1 + O
100 kPa
Details	electrical conductivity [S/m]	viscosity [mPa·s]
288.15 K, x1 = 0.8211	0.244 ± 0.02	56.95 ± 0.62
288.15 K, x1 = 0.85	0.209 ± 0.02	62.86 ± 0.75
288.15 K, x1 = 0.8812	0.178 ± 0.02	69.98 ± 0.97
288.15 K, x1 = 0.9123	0.148 ± 0.02	77.3 ± 1.3
288.15 K, x1 = 0.9441	0.118 ± 0.02	85.4 ± 1.6
288.15 K, x1 = 1	0.067 ± 0.02	96.2 ± 2.1
293.15 K, x1 = 0.8211	0.285 ± 0.02	43.77 ± 0.57
293.15 K, x1 = 0.85	0.255 ± 0.02	48.37 ± 0.63
293.15 K, x1 = 0.8812	0.228 ± 0.02	53.31 ± 0.56
293.15 K, x1 = 0.9123	0.202 ± 0.02	58.97 ± 0.66
293.15 K, x1 = 0.9441	0.177 ± 0.02	64.74 ± 0.77
293.15 K, x1 = 1	0.132 ± 0.02	72.77 ± 0.96
298.15 K, x1 = 0.8211	0.332 ± 0.02	34.4 ± 0.51
298.15 K, x1 = 0.85	0.305 ± 0.02	37.68 ± 0.54
298.15 K, x1 = 0.8812	0.28 ± 0.02	41.51 ± 0.57
298.15 K, x1 = 0.9123	0.258 ± 0.02	45.4 ± 0.6
298.15 K, x1 = 0.9441	0.236 ± 0.02	49.8 ± 0.61
298.15 K, x1 = 1	0.196 ± 0.02	55.65 ± 0.48
303.15 K, x1 = 0.8211	0.425 ± 0.02	27.21 ± 0.47
303.15 K, x1 = 0.85	0.399 ± 0.02	29.76 ± 0.49
303.15 K, x1 = 0.8812	0.371 ± 0.02	32.63 ± 0.51
303.15 K, x1 = 0.9123	0.349 ± 0.02	35.7 ± 0.53
303.15 K, x1 = 0.9441	0.326 ± 0.02	39.01 ± 0.54
303.15 K, x1 = 1	0.285 ± 0.02	43.51 ± 0.52
308.15 K, x1 = 0.8211	0.539 ± 0.02	22.04 ± 0.45
308.15 K, x1 = 0.85	0.507 ± 0.02	23.97 ± 0.46
308.15 K, x1 = 0.8812	0.478 ± 0.02	26.44 ± 0.47
308.15 K, x1 = 0.9123	0.451 ± 0.02	28.78 ± 0.48
308.15 K, x1 = 0.9441	0.425 ± 0.02	30.96 ± 0.49
308.15 K, x1 = 1	0.378 ± 0.02	34.6 ± 0.48
313.15 K, x1 = 0.8211	0.647 ± 0.02	17.65 ± 0.43
313.15 K, x1 = 0.85	0.617 ± 0.02	19.48 ± 0.44
313.15 K, x1 = 0.8812	0.588 ± 0.02	21.34 ± 0.45
313.15 K, x1 = 0.9123	0.561 ± 0.02	22.96 ± 0.45
313.15 K, x1 = 0.9441	0.534 ± 0.02	24.58 ± 0.46
313.15 K, x1 = 1	0.488 ± 0.02	27.45 ± 0.45
318.15 K, x1 = 0.8211	0.775 ± 0.02	14.34 ± 0.42
318.15 K, x1 = 0.85	0.747 ± 0.02	15.58 ± 0.43
318.15 K, x1 = 0.8812	0.718 ± 0.02	17.15 ± 0.43
318.15 K, x1 = 0.9123	0.691 ± 0.02	18.49 ± 0.43
318.15 K, x1 = 0.9441	0.664 ± 0.02	19.86 ± 0.44
318.15 K, x1 = 1	0.619 ± 0.02	22.11 ± 0.44

CCCCC(CC)COC(=O)CC(C(=O)OCC(CC)CCCC)S(=O)(=O)[O-].CCCC[n+]1ccn(C)c1 (stereo not drawn) + O
99.6 kPa, x1 = 0.8687
Details	viscosity [mPa·s]
293.15 K	3442 ± 210
303.15 K	1454 ± 77

CCCCCCCCCCCCCCCC[n+]1ccccc1.[Cl-] + O
Details	electrical conductivity [S/m]
293.15 K, 100 kPa, x1 = 3.6e-06	0.0028 ± 0.0012
293.15 K, 100 kPa, x1 = 7.21e-06	0.005 ± 0.0012
293.15 K, 100 kPa, x1 = 1.442e-05	0.0091 ± 0.0011
298.15 K, 100 kPa, x1 = 3.6e-06	0.0028 ± 0.0013
298.15 K, 100 kPa, x1 = 7.21e-06	0.0051 ± 0.0013
298.15 K, 100 kPa, x1 = 1.081e-05	0.0076 ± 0.0013
298.15 K, 100 kPa, x1 = 1.442e-05	0.0098 ± 0.0011
298.15 K, 100 kPa, x1 = 9.009e-05	0.02 ± 0.001
303.15 K, 100 kPa, x1 = 3.6e-06	0.003 ± 0.0013
303.15 K, 100 kPa, x1 = 7.21e-06	0.0057 ± 0.0013
303.15 K, 100 kPa, x1 = 1.081e-05	0.0083 ± 0.0013
303.15 K, 100 kPa, x1 = 9.009e-05	0.021 ± 0.001
308.15 K, 100 kPa, x1 = 3.6e-06	0.0034 ± 0.0014
308.15 K, 100 kPa, x1 = 7.21e-06	0.0065 ± 0.0014
308.15 K, 100 kPa, x1 = 1.081e-05	0.0095 ± 0.0014
308.15 K, 101 kPa, x1 = 5.4e-07	0.000222 ± 2e-06
308.15 K, 101 kPa, x1 = 9e-07	0.00029 ± 3e-06
308.15 K, 101 kPa, x1 = 1.62e-06	0.0004 ± 4e-06
308.15 K, 101 kPa, x1 = 2.34e-06	0.000465 ± 5e-06
308.15 K, 101 kPa, x1 = 2.88e-06	0.000581 ± 6e-06
308.15 K, 101 kPa, x1 = 3.78e-06	0.000705 ± 7e-06
308.15 K, 101 kPa, x1 = 4.5e-06	0.000794 ± 8e-06
308.15 K, 101 kPa, x1 = 5.59e-06	0.000937 ± 9e-06
308.15 K, 101 kPa, x1 = 6.85e-06	0.00106 ± 1.1e-05
308.15 K, 101 kPa, x1 = 7.93e-06	0.001222 ± 1.2e-05
308.15 K, 101 kPa, x1 = 9.01e-06	0.001438 ± 1.4e-05
308.15 K, 101 kPa, x1 = 1.009e-05	0.00159 ± 1.6e-05
308.15 K, 101 kPa, x1 = 1.117e-05	0.001701 ± 1.7e-05
308.15 K, 101 kPa, x1 = 1.333e-05	0.00209 ± 2.1e-05
308.15 K, 101 kPa, x1 = 1.55e-05	0.00219 ± 2.2e-05
308.15 K, 101 kPa, x1 = 1.766e-05	0.00237 ± 2.4e-05
308.15 K, 101 kPa, x1 = 1.982e-05	0.00248 ± 2.5e-05
308.15 K, 101 kPa, x1 = 2.18e-05	0.00259 ± 2.6e-05
308.15 K, 101 kPa, x1 = 2.397e-05	0.00264 ± 2.6e-05
308.15 K, 101 kPa, x1 = 2.595e-05	0.00278 ± 2.8e-05
308.15 K, 101 kPa, x1 = 3.009e-05	0.00297 ± 3e-05
308.15 K, 101 kPa, x1 = 3.406e-05	0.00314 ± 3.1e-05
308.15 K, 101 kPa, x1 = 3.802e-05	0.00328 ± 3.3e-05
308.15 K, 101 kPa, x1 = 4.18e-05	0.00342 ± 3.4e-05
308.15 K, 101 kPa, x1 = 4.559e-05	0.00356 ± 3.6e-05
308.15 K, 101 kPa, x1 = 4.919e-05	0.00369 ± 3.7e-05
308.15 K, 101 kPa, x1 = 5.099e-05	0.00375 ± 3.8e-05
308.15 K, 101 kPa, x1 = 6e-05	0.00403 ± 4e-05
308.15 K, 101 kPa, x1 = 6.847e-05	0.00432 ± 4.3e-05
308.15 K, 101 kPa, x1 = 7.658e-05	0.00454 ± 4.5e-05
308.15 K, 101 kPa, x1 = 8.433e-05	0.00477 ± 4.8e-05
308.15 K, 101 kPa, x1 = 9.189e-05	0.00497 ± 5e-05
308.15 K, 101 kPa, x1 = 9.91e-05	0.00516 ± 5.2e-05
308.15 K, 101 kPa, x1 = 0.000106	0.00533 ± 5.3e-05
308.15 K, 101 kPa, x1 = 0.0001126	0.0055 ± 5.5e-05
313.15 K, 100 kPa, x1 = 9.009e-05	0.023 ± 0.001

CCCCCCCC[n+]1ccccc1.F[B-](F)(F)F + O
101.3 kPa
Details	viscosity [mPa·s]
288.15 K, x2 = 0	447 ± 34
288.15 K, x2 = 0.1	289 ± 17
288.15 K, x2 = 0.184	192.6 ± 9
288.15 K, x2 = 0.324	121.3 ± 3.9
288.15 K, x2 = 0.477	89 ± 2
288.15 K, x2 = 0.67	50.65 ± 0.78
288.15 K, x2 = 0.758	37.8 ± 0.8
293.15 K, x2 = 0.1	213 ± 11
293.15 K, x2 = 0.184	145.6 ± 5.5
293.15 K, x2 = 0.324	94.1 ± 2.2
298.15 K, x2 = 0.67	32.69 ± 0.7
298.15 K, x2 = 0.758	23.24 ± 0.65
308.15 K, x2 = 0	134.8 ± 4.7
308.15 K, x2 = 0.783	15.11 ± 0.62
313.15 K, x2 = 0.562	19.43 ± 0.63
313.15 K, x2 = 0.67	18.67 ± 0.63
318.15 K, x2 = 0	81.6 ± 1.6
318.15 K, x2 = 0.324	32.19 ± 0.68
323.15 K, x2 = 0.324	27.26 ± 0.66
328.15 K, x2 = 0.1	38.44 ± 0.72
328.15 K, x2 = 0.184	30.98 ± 0.67
328.15 K, x2 = 0.758	8.61 ± 0.6
333.15 K, x2 = 0	45.28 ± 0.75
333.15 K, x2 = 0.1	32.1 ± 0.68
333.15 K, x2 = 0.184	26.18 ± 0.65
333.15 K, x2 = 0.758	7.63 ± 0.6
338.15 K, x2 = 0.67	9.23 ± 0.61
343.15 K, x2 = 0.324	15.05 ± 0.62
343.15 K, x2 = 0.67	7.99 ± 0.6
348.15 K, x2 = 0	27.77 ± 0.65
348.15 K, x2 = 0.477	10.05 ± 0.61
